Assay [1] has as its target Prostaglandin E2 receptor EP2 subtype (Homo sapiens) (UniProt P43116). Kind of assay: The percentage decrease in the binding of [3H]PGE2, in the presence of 125 uM of compound.
Assay [2] shares this target. The assay can be described thus: The percentage decrease in the binding of [3H]PGE2, in the presence of 1000 uM of compound.

The structures appear in SMILES notation.

Chain of Prostaglandin E2 receptor EP2 subtype (Homo sapiens) (P43116 whole entry): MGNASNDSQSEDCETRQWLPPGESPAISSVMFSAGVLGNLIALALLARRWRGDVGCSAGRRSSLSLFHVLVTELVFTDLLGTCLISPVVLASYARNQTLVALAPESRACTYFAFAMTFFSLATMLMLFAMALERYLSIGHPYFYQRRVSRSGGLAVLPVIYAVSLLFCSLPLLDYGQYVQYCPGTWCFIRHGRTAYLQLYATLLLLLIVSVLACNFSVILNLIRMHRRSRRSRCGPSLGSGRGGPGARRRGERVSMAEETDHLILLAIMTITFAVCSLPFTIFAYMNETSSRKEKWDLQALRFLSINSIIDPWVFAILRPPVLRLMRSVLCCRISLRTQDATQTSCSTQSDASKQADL

In the case of `O=C1C[C@H](O)[C@@H](CO)O1`, the results for the Decrease in assay [1] and in assay [2] were 78% and 33%, respectively. Consider `O=C1C[C@H](O)[C@H](CO)O1`, for which the Decrease in assay [2] is 73%.
